Measured values published in patent US20220389515A1, “USE OF BIOMARKERS TO PREDICT CLINICAL SENSITIVITY TO 2-(4-CHLOROPHENYL)-N-((2-(2,6-DIOXOPIPERIDIN-3-YL)-1-OXOISOINDOLIN-5-YL)METHYL)-2,2-DIFLUOROACETAMIDE” (priority 2019, published 2022).

Key:
AML cell lines = test: Cell proliferation assay (CTG) in AML cell lines, 72 hours; format: cell-based, human; details: 11 AML cell lines, Day 3
Experimental: On Day 3, cell proliferation was assessed by the Cell-Titer Glo (CTG) assay.
For cell proliferation assays, human cancer cell lines cultured in the growth medium recommended by the vendor (as described above) were seeded into black 384-well plates containing DMSO or test compounds. The seeding density of each cell line was optimized to allow for cell growth in the linear growth phase during a 3-day culture period. To test the compounds' effect on cell proliferation in AML cell lines, 5,000 to 10,000 cells per well in 200 L complete culture media were seeded into black 96-well plates containing DMSO or test compounds. After 72 hours, cell proliferation was assessed using the CTG assay according to the manufacturer's instructions. […] Relative cell proliferation was normalized against cell growth values on day 4. The growth inhibitory curve was processed and graphed using GraphPad Prism Version 7 (P<0.05, unpaired two-sided t-test, is considered as significant).

cereblon to GSPT1 [1] = molecular target: T1, cereblon to GSPT1 (Homo sapiens, UniProt P15170+Q96SW2); test: Cereblon binding assay with cell extracts (anti-HA immunoprecipitation), GSPT1; details: wild-type FLAG-HA-CRBN; compound added directly into the binding assay
T1 construct: expressed in transfected cells; host or cells: 293FT CRBN-/- cells (transient transfection; cell extracts, anti-HA immunoprecipitation)
T1 sequence (Q96SW2 whole entry): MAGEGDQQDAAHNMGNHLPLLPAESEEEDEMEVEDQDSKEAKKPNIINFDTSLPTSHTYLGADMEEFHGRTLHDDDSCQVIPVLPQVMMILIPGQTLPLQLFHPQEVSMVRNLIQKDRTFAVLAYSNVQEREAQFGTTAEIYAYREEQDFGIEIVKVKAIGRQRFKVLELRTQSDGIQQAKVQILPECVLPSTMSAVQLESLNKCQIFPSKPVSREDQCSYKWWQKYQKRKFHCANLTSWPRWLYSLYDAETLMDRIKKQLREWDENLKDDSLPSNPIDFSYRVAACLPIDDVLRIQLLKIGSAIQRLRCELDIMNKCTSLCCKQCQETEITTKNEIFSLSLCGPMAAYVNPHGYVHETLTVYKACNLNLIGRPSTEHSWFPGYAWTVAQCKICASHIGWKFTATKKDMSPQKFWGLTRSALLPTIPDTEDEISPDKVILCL
T1 sequence (P15170 1-637 isoform P15170-3): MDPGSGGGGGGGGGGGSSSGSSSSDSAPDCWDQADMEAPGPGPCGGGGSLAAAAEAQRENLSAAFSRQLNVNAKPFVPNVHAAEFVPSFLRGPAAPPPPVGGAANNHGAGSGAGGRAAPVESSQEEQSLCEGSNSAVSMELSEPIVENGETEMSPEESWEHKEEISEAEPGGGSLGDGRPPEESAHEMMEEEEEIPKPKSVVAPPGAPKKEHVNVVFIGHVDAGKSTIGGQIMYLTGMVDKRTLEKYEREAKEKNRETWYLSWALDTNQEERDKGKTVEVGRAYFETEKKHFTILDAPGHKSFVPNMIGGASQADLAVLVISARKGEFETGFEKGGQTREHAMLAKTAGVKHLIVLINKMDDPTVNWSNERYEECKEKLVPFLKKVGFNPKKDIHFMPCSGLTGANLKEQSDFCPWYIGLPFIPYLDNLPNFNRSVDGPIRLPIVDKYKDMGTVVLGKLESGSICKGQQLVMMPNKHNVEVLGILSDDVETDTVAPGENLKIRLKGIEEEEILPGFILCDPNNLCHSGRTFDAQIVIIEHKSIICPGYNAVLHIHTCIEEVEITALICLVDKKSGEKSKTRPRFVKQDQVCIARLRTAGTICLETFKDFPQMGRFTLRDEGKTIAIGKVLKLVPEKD
Text: (§1) FIG. 3A illustrates FLAG-HA tagged cereblon wild-type (FLAG-HA-CRBN) or Y384A/W386A mutant (FLAG-HA-YWAA) produced in 293FT CRBN−/− cells was used to capture V5 tagged GSPT1 (GSPT1-V5) and V5 tagged IKZF1 (IKZF1-V5) transiently expressed in 293FT CRBN−/− cells. […] FIG. 3B illustrates the surface representation of GSPT1 in complex with cereblon, DDB1 and Compound D, with DDB1 shown in purple, cereblon in blue, and GSPT1 in orange. The position of Compound D is shown with a white arrow. FIG. 3C illustrates the Fo-Fc omit electron density (green mesh) for Compound D (yellow sticks) contoured at 3.06. […] Hydrogen bond interactions between cereblon and the GPST1 β-hairpin are shown as yellow dashes. FIG. 3E illustrates details of the binding interface between cereblon and GSPT1. Compound D is represented as yellow sticks. Predicted polar interactions between Compound D and cereblon are shown as yellow dashes. FIG. 3F illustrates the immunoblot analysis of U937 parental cells or cells stably expressing HA-GSPT1-G575N. Cells were treated with DMSO or Compound D at the indicated concentrations. FIGS. 3G and 311 illustrate the immunoblot analysis (left panel) and cell proliferation (right panel) of MOLM-13 (FIG. 3G) and OCI-AML2 (FIG. 311) parental cells and cells stably expressing HA tagged GSPT1-G575N. Cells were treated with DMSO or Compound D at indicated concentrations.

cereblon to GSPT1 [2] = molecular target: T2, cereblon to GSPT1 (Homo sapiens, UniProt P15170+Q96SW2, W386A/Y384A); test: as above; details: FLAG-HA-YWAA mutant
T2 construct: expressed in transfected cells; host or cells: 293FT CRBN-/- cells (transient transfection; cell extracts, anti-HA immunoprecipitation)
T2 sequence (Q96SW2 whole entry Y384A/W386A): as the sequence (Q96SW2 whole entry) above, with Y384A, W386A counted along it
T2 sequence (P15170 1-637 isoform P15170-3, stated change not applied): as the sequence (P15170 1-637 isoform P15170-3) above
Text: as §1

cereblon to IKZF1 = molecular target: T3, cereblon to IKZF1 (Homo sapiens, UniProt Q96SW2); test: Cereblon binding assay with cell extracts (anti-HA immunoprecipitation), IKZF1; details: wild-type FLAG-HA-CRBN; compound added directly into the binding assay
T3 construct: expressed in transfected cells; host or cells: 293FT CRBN-/- cells (transient transfection; cell extracts, anti-HA immunoprecipitation)
T3 sequence (Q96SW2 whole entry): as the sequence (Q96SW2 whole entry) above
Text: as §1

[3] = system: U937, OCI-AML2 and MOLM-13; test: Cell proliferation of parental, CRBN-ablated and GSPT1-G575N expressing AML cells; format: cell-based, human
Experimental: FIG. 2A illustrates the volcano plot of differentially abundant proteins in response to Compound D treatment relative to the DMSO control. KG1 cells were treated with DMSO or 100 nM Compound D for 4 hours and subjected to TMT proteomics analysis. The X-axis denotes the log 2-fold change of Compound D versus the DMSO control for each protein. P-values were corrected for multiple hypothesis testing using the Benjamini-Hoschberg method to arrive at an adjusted-P-value (adj-P, also known as a false discovery rate). The y-axis denotes the −log 10 (adj-P) values indicating statistical significance such that proteins lying above the dotted red line are statistically significant findings with adjusted P-values<0.05. FIG. 2B illustrates the immunoblot analysis of KG1 and U937 cells treated with DMSO or Compound D for 4 hours. Where indicated, cells were pretreated with Bortezomib or MLN4924 for 30 minutes. […]
For cell proliferation assays, human cancer cell lines cultured in the growth medium recommended by the vendor (as described above) were seeded into black 384-well plates containing DMSO or test compounds. […] After 72 hours, cell proliferation was assessed using the CTG assay according to the manufacturer's instructions. […]

[4] = molecular target: T4, HA-tagged GSPT1 and endogenous cereblon (Homo sapiens, UniProt P15170+Q96SW2); test: Anti-HA immunoprecipitation of HA-tagged GSPT1 with endogenous cereblon in U937-Cas9 cells; format: cell-based; details: with MLN4924
T4 construct: expressed in transfected cells; host or cells: U937-Cas9 cells stably expressing HA-tagged GSPT1 (cereblon endogenous); cells treated with MLN4924 and Compound D, anti-HA immunoprecipitation
T4 sequence (P15170 1-637 isoform P15170-3): as the sequence (P15170 1-637 isoform P15170-3) above
T4 sequence (Q96SW2 whole entry): as the sequence (Q96SW2 whole entry) above
T4 sequence (Q16531 whole entry partner): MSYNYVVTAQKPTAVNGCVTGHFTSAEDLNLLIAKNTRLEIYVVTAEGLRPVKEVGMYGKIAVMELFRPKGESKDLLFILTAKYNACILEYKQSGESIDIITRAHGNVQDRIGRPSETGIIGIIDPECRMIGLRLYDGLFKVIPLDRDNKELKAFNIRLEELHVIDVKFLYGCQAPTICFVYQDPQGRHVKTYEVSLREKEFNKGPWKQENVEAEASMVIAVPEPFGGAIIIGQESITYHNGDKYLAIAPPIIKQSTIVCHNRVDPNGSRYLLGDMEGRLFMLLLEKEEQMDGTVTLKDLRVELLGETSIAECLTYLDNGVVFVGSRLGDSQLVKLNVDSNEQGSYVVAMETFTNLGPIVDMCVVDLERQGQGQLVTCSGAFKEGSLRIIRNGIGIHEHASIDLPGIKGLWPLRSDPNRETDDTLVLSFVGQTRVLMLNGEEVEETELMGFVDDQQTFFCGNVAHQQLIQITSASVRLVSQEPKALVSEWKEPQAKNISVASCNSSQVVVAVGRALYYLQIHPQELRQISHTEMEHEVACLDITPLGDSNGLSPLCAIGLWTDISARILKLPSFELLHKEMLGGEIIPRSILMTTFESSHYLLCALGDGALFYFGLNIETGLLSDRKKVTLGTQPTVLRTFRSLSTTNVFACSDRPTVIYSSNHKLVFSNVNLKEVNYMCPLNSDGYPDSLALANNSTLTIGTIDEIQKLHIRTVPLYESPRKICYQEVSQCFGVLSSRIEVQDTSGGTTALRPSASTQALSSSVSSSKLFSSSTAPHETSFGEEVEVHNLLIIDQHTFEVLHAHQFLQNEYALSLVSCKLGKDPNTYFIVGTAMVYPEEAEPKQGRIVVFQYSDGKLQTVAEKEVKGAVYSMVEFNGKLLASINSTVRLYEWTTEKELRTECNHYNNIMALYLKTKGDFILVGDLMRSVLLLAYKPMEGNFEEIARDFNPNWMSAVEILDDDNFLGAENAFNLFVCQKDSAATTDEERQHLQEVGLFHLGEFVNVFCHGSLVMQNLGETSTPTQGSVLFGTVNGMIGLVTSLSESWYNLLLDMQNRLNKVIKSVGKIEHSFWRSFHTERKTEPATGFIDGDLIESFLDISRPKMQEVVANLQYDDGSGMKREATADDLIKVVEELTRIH

O=C1CCC(N2Cc3cc(CNC(=O)C(F)(F)c4ccc(Cl)cc4)ccc3C2=O)C(=O)N1 (stereo not shown) [Compound D, 2-(4-chlorophenyl)-N-((2-(2,6-dioxopiperidin-3-yl)-1-oxoisoindolin-5-yl)methyl)-2,2-difluoroacetamide]
anti-proliferative activity (AML cell lines): potent anti-proliferative activity in 10 out of 11 AML cell lines
binding of cereblon to GSPT1 (cereblon to GSPT1 [1]): promoted the binding of cereblon to GSPT1
binding of cereblon mutant Y384A and W386A to GSPT1 (cereblon to GSPT1 [2]): completely abolished the binding of cereblon
binding of cereblon to IKZF1 (cereblon to IKZF1): not IKZF1
anti-proliferative effect after ablation of CRBN ([3]; CRBN knockout U937, OCI-AML2, MOLM-13): completely abolished the anti-proliferative effect
antiproliferative response in cells overexpressing GSPT1-G575N ([3]; U937, OCI-AML2, MOLM-13, GSPT1 stabilization): completely inhibited the response to Compound D
Compound D-induced interaction of HA-tagged GSPT1 with endogenous cereblon after TSC1 loss [4]: significantly reduced the interaction between HA-tagged GSPT1 and endogenous cereblon induced by Compound D
